Laboratory results published in paper PMC11669383, “Modulating Liposome Surface Charge for Maximized ATP Regeneration in Synthetic Nanovesicles” (ACS Synthetic Biology, 2024).
Blank lines part the entries; values can stand above or below the molecule they belong to.

How the values were obtained:
Experiment in all cases: coupled ATP synthesis in proteoliposomes, luciferase luminescence
[1] = biological target: T1, quinone-fumarate oxidoreductase (FRD) (Escherichia coli, UniProt P00363); format: biochemical
T1 construct: gene frdA; coreconstituted in liposomes; with Fumarate reductase iron-sulfur subunit; Fumarate reductase subunit C; Fumarate reductase subunit D
T1 sequence (P00363 2-602, other chains not shown): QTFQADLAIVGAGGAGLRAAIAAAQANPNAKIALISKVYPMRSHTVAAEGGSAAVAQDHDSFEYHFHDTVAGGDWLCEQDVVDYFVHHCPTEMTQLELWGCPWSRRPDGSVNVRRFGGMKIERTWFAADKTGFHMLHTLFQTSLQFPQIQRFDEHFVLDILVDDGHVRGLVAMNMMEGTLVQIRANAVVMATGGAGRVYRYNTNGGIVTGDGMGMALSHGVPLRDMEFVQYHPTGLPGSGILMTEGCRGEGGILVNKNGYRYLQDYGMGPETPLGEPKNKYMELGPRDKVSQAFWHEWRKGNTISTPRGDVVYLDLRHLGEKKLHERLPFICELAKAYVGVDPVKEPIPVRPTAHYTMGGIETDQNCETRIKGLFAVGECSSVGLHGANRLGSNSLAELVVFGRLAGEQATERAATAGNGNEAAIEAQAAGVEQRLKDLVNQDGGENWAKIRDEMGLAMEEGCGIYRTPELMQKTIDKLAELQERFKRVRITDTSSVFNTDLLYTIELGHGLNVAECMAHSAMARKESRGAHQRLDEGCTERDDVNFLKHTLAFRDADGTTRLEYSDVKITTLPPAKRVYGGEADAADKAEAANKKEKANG
T1 sequence (P0AC47 2-244 partner, other chains not shown): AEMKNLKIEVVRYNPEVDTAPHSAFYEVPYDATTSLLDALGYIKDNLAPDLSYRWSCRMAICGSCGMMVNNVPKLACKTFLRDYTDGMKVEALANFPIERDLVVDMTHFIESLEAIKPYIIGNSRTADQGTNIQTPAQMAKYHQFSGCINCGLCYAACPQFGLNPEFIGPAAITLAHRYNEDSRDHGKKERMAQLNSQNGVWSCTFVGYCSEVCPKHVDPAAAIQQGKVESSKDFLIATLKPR
T1 sequence (P0A8Q0 whole entry partner, other chains not shown): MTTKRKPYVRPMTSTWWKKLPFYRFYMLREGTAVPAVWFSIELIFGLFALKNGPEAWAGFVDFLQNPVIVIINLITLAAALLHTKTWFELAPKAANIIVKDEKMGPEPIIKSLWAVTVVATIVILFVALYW

[2] = biological target: T1, quinone-fumarate oxidoreductase (FRD); format: biochemical; details: bo3 oxidase and ATP synthase coreconstituted in E. coli polar lipid liposomes, 2 mol % ubiquinone Q8, succinate 1-2000 μM, pH 7.5, read-out is the coupled rate, read-out: apparent KM
[3] = substrate: NC(=O)C1=CN([C@@H]2O[C@H](COP(=O)(O)OP(=O)(O)OC[C@H]3O[C@@H](n4cnc5c(N)ncnc54)[C@H](O)[C@@H]3O)[C@@H](O)[C@H]2O)C=CC1; format: biochemical, Escherichia coli; details: NDH-2 added to liposomes with bo3 oxidase, FRD and ATP synthase, 2 mol % ubiquinone Q8, NADH 5-200 μM, pH 7.5, read-out is the coupled rate

Molecule: O=C(O)CC(=O)O [malonate]
- coupled ATP synthesis in proteoliposomes, luciferase luminescence [1]: The reaction was sensitive to the complex II inhibitor malonate.

- Km [2]: 62.2 µM
Molecule: O=C(O)CCC(=O)O [succinate]

B1: NADH dehydrogenase II (NDH-2) (Escherichia coli K-12) (protein)
chain: TTPLKKIVIVGGGAGGLEMATQLGHKLGRKKKAKITLVDRNHSHLWKPLLHEVATGSLDEGVDALSYLAHARNHGFQFQLGSVIDIDREAKTITIAELRDEKGELLVPERKIAYDTLVMALGSTSNDFNTPGVKENCIFLDNPHQARRFHQEMLNLFLKYSANLGANGKVNIAIVGGGATGVELSAELHNAVKQLHSYGYKGLTNEALNVTLVEAGERILPALPPRISAAAHNELTKLGVRVLTQTMVTSADEGGLHTKDGEYIEADLMVWAAGIKAPDFLKDIGGLETNRINQLVVEPTLQTTRDPDIYAIGDCASCPRPEGGFVPPRAQAAHQMATCAMNNILAQMNGKPLKNYQYKDHGSLVSLSNFSTVGSLMGNLTRGSMMIEGRIARFVYISLYRMHQIALHGYFKTGLMMLVGSINRVIRPRLKLH
notes: 45 kDa peripheral membrane protein with FAD
- Km [3]: 18.5 µM
